Patent publication US6706704B2 (priority 2001, dated 2004)

Key:
[1] = test system: CO2 responsiveness of phrenic nerve activity; parameters: species or system cat; details: in vivo
[2] = test system: bulbospinal Aug-I neurons of the VRG; assay: Iontophoresis of DAMGO and opioid receptor blockers on bulbospinal inspiratory (Aug-I) neurons, extracellular recording; format: in vivo, cat; details: for effect of opioid receptor blocker on DAMGO-mediated depression: naloxonazine 50-90 nA (15 neurons), naltrindole 50-100 nA (10 neurons)
[3] = test system: D1-dopamine receptors (phrenic nerve activity); parameters: species or system cat; details: in vivo

## Br.C=CCN1CCc2c(cc(O)c(O)c2Cl)C(c2ccccc2)C1 (racemic) [(±)-chloro-APB, (+/−)6-chloro-7,8-dihydroxy-3-allyl-1-phenyl-2,3,4,5-tetrahydro-1H-3-benzazepine hydrobromide]
[1]
  sensitivity of PN activity to CO2: did not significantly alter the sensitivity of PN activity to CO2

## C[C@@H](NC(=O)[C@@H](N)Cc1ccc(O)cc1)C(=O)NCC(=O)N(C)[C@@H](Cc1ccccc1)C(=O)NCCO [DAMGO, D-Ala^2,N-Me-Phe^4,Gly-ol^5-Enkephalin]
[2]; DAMGO without blocker
  DAMGO-mediated depression: 50-85%
[2]; after DAMGO iontophoresis
  time to restoration of control activity during recovery: 60 to 90 s
[2]; iontophoresis 1-3 minutes, 50-90 nA ejecting currents
  action potential frequency: 50-85 % of control
[2]; iontophoresis, 25 neurons, pentobarbital-anesthetized cats
  effect on discharges of Aug-I neurons: depressed discharges of all Aug-I neurons

## C=CCN1CC[C@]23c4c5ccc(O)c4O[C@H]2/C(=N/N=C2\CC[C@@]4(O)[C@H]6Cc7ccc(O)c8c7[C@@]4(CCN6CC=C)[C@H]2O8)CC[C@@]3(O)[C@H]1C5 [Naloxonazine]
[2]; in the presence of Naloxonazine (50-90 nA)
  DAMGO-mediated depression: 20-35%
[2]; iontophoresis
  effect of opioid receptor blocker on DAMGO-mediated depression: blocked DAMGO-mediated depression in all neurons tested

## Oc1ccc2c3c1O[C@H]1c4[nH]c5ccccc5c4C[C@@]4(O)[C@@H](C2)N(CC2CC2)CC[C@]314 [Naltrindole]
[2]; iontophoresis
  effect of opioid receptor blocker on DAMGO-mediated depression: without effect on all neurons tested

## CN1CCc2cc(Cl)c(O)cc2[C@@H](c2ccccc2)C1 [R(+)-SCH-23390, (R)(+)-7-chloro-8-hydroxy-3-methyl-1-phenyl-2,3,4,5-tetrahydro-1H-3-benzazepine]
[3]
  effect of D1 antagonist on D1 agonist effects: blocked D1 agonist effects
